The target in data set [1] is TrkB (Homo sapiens, UniProt Q16620). Briefly: Inhibitory activity test for Trk kinases (γ-33P-ATP isotope test), TrkB. The format is biochemical. As to conditions: 33P-ATP 10 μM, 2 h reaction; read-out: Kinase IC50 TrkB. How it is done: (§1) Inhibitory Activity Test for Trk Kinases
(§2) In this experiment, the γ-^33P-ATP isotope test was used to test the inhibition effect of a compound on kinases TrkA, TrkB and TrkC, and the half maximal inhibitory concentration IC50 of the inhibitory activity of the compound on the enzymes was obtained.
(§3) A compound was dissolved in 100% DMSO to a particular concentration, and then the resulting solution was gradient-diluted by an automatic loading device to different concentrations of the test samples (DMSO dissolving solutions).
(§4) 3.1. The reaction substrate was diluted using the base reaction buffer;
(§5) 3.2. The kinase was added into the substrate solution and mixed gently and uniformly;
(§6) 3.3. The compounds of different concentrations diluted in 100% DMSO were added into the kinase solution using an automatic loading system, and incubated for 20 min at room temperature;
(§7) 3.4. ^33P-ATP (10 μM, 10 μCi/μl) was added at room temperature to initiate the kinase reaction, and the reaction was carried out for 2 h.
(§8) The reaction solution was subjected to an ion exchange filtration system to remove unreacted ATP and the generated ADP ions during the reaction. Then, the radiometric quantity of ^33P isotope in the substrate was detected.
(§9) The kinase activity in the system with the addition of the inhibitors of different concentrations was calculated from the radiometric quantity, to obtain the inhibitory effect of the compounds with different concentrations on the kinase activity. Fitting was performed using graphpad prism to obtain IC50 values of the compounds for inhibition.

Data set [2] deals with TrkA (Homo sapiens, UniProt P04629). Briefly: Inhibitory activity test for Trk kinases (γ-33P-ATP isotope test), TrkA. The format is biochemical. The conditions noted are these: 33P-ATP 10 μM, 2 h reaction; read-out: Kinase IC50 TrkA. As to the method:
as §1, §2, §3, §4, §5, §6, §7, §8, §9

Data set [3] concerns the target TrkC (Homo sapiens, UniProt Q16288). Briefly: Inhibitory activity test for Trk kinases (γ-33P-ATP isotope test), TrkC. The format is biochemical. As to conditions: 33P-ATP 10 μM, 2 h reaction; read-out: Kinase IC50 TrkC. How it is done: as §1, §2, §3, §4, §5, §6, §7, §8, §9
The test system of data set [4] is BaF3-tel-NTRK1. Nature of the data set: Growth inhibition test, CellTiter-Glo, tel-NTRK1-BaF3 cells. The format is cell-based. The conditions noted are these: 72 hours incubation, read-out: Cell GI50 BaF3-tel-NTRK1. As to the method: Growth Inhibition Test for Tel-NTRK1-BaF3 and BaF3-LMNA-NTRK1 Cells
In this experiment, the CellTiter-Glo cell proliferation fluorescence assay was used to test the growth inhibitory effect of a compound on tel-NTRK1-BaF3 and BaF3-LMNA-NTRK1 transgenic cells, and the half maximal growth inhibitory concentration GI50 of the compound on the cells was obtained.
A compound to be tested was dissolved in DMSO to formulate 10 mM of a mother solution. The mother solution was 3× diluted to 10 mM, 3.333 mM, 1.111 mM, 0.370 mM, 0.123 mM, 0.041 mM, 0.014 mM, 0.005 mM, and 0.002 mM. The prepared solutions were each stored in a 0.5 ml sterilized dorft tube (Corning, USA). In addition, an equal volume of DMSO solvent was used as a blank control. With 10 concentration gradients, the plate was stored in vacuum at −20° C.
The tel-NTRK1-BaF3 and BaF3-LMNA-NTRK1 cell lines were cultured with RPMI 1640 (Corning, N.Y., USA)+10% fetal bovine serum (Gibico, Invitrogen, USA). After the cells were thawed, they were cultured for two generations to be tested.
Logarithmic growth phase cells (2000-2500 cells/well) were inoculated in a 12×8 96-well white opaque cell culture plate (Corning 3570, NY, USA) in a volume of 100 μL per well, and a drug was added to the cell plate (0.1 μL/well) at the final concentration of the compound of 10 μM, 3.3 μM, 1.1 μM, 0.37 μM, 0.12 IM, 0.04 μM, 0.014 IM, 0.005 μM, and 0.002 μM (0.4 uL of the drug solution was added to 400 ul of the cell homogenate, and then mixed uniformly, and the resulting mixture was added at 100 ul per well). The plate was incubated at 37° C. in a 5% CO2 incubator for 72 hours, and then 20 μL CellTiter-Glo cell proliferation fluorescence assay reagent was added. The plate was allowed to stand for 10 min, and read in the Envision Plate-Reader. […]
A corresponding […] value RLU of each well was obtained by reading in the Envision Plate-reader. […]
The biochemical activity of the compounds of the present invention was determined by the above experiment, and the measured GI50 values are shown in table 2: […]
(In ATP-based viability assays light output follows the ATP content of the culture.)

Data set [5] can be described thus: Metabolic stability in human liver microsomes. The format is in vitro ADME. The conditions noted are these: for Remaining % (60 min) / microsomal CLint at 1 μmol/L: human liver microsomes 0.5 mg/mL, compound 1 μmol/L; for Remaining % (60 min): 37° C.; for Negative control Remaining % (60 min): human liver microsomes, negative control incubation; for half-life at 1 μmol/L: human, liver microsomes; for half-life at 1 μmol/L / microsomal CLint at 1 μmol/L: pH 7.4; for microsomal CLint at 1 μmol/L: read-out: Clint (μL/min/mg protein). As to the method: Testing on Metabolic Stability of Compounds in Human Liver Microsomes
The total volume of an incubation system was 250 μL, and 50 mmol/L PBS buffer (pH=7.4) was used to prepare incubation solutions of liver microsomes from various species with a protein concentration of 0.5 mg/mL. Before the start of the incubation, 2.5 μL of a 100 μmol/L compound to be tested was mixed with 197.5 μL of the above incubation solution, pre-incubated in a 37° C. water bath for 5 min, and then added with a 50 μL reducing coenzyme II solution (5 mmol/L) that was likewise pre-incubated for 5 min to start the reaction (in the reaction system, the protein content of liver microsomes from various species was 0.5 g/L, and the final concentration of the compound to be tested was 1 μmol/L), incubated in a 37° C. water bath with shaking, and taken out at 0, 5, 15, 30, and 60 min. 600 μL of a methanol solution of mixed positive and negative internal standards with internal standards Terfenadine (positive ion internal standard, 25 ng/mL) and Tolbutamide (negative ion internal standard, 50 ng/mL) was immediately added to terminate the reaction. The incubation solution after termination was shaken for 2 min and centrifuged (4° C., 16000 r/min) for 10 min, and the supernatant was taken for LC-MS/MS detection to quantitatively analyze the remaining amount of the parent drug. (DMSO<0.1%).
The concentration of the compound at 0 min incubation was regarded as 100%, and the concentrations at other incubation time points were converted into the remaining percentages. The natural logarithm of the remaining percentage at each time point was linearly regressed against the incubation time, and the slope k was calculated. According to the formula T1/2=−0.693/k, the in vitro half-life was calculated. Clearance in liver microsomes (CLint (μL/min/mg protein)=Ln (2)*1000/T1/2 (min)/Protein Conc(mg/ml)).
Test data of metabolic stability of the compounds of the present invention in human liver microsomes are listed in detail in table 3: […]
(Liver microsomes are a subcellular fraction often used to study metabolism.)

Sequence of TrkB (Q16620 32-822, species assumed): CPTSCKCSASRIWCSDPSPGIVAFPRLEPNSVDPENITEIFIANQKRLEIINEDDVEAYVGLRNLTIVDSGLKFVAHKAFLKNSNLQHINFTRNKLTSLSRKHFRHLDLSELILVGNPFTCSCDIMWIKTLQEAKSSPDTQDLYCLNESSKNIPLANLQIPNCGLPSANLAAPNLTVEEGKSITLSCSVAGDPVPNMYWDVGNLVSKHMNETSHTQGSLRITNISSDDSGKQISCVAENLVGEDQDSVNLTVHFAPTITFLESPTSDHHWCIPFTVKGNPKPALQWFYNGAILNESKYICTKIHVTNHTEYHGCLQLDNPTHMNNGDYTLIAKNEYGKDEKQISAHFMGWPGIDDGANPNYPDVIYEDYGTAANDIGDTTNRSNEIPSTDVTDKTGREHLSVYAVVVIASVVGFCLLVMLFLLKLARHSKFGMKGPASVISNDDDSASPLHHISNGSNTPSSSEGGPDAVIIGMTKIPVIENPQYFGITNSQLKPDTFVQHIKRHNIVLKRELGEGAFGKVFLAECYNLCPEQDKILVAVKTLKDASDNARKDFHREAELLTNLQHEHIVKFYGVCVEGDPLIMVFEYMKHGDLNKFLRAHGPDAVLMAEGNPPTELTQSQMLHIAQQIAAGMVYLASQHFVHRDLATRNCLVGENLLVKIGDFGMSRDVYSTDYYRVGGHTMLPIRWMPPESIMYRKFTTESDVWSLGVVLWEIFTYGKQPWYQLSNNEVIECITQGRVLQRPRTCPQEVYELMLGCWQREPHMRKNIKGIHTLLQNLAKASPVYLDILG
Sequence of TrkC (Q16288 32-839, species assumed): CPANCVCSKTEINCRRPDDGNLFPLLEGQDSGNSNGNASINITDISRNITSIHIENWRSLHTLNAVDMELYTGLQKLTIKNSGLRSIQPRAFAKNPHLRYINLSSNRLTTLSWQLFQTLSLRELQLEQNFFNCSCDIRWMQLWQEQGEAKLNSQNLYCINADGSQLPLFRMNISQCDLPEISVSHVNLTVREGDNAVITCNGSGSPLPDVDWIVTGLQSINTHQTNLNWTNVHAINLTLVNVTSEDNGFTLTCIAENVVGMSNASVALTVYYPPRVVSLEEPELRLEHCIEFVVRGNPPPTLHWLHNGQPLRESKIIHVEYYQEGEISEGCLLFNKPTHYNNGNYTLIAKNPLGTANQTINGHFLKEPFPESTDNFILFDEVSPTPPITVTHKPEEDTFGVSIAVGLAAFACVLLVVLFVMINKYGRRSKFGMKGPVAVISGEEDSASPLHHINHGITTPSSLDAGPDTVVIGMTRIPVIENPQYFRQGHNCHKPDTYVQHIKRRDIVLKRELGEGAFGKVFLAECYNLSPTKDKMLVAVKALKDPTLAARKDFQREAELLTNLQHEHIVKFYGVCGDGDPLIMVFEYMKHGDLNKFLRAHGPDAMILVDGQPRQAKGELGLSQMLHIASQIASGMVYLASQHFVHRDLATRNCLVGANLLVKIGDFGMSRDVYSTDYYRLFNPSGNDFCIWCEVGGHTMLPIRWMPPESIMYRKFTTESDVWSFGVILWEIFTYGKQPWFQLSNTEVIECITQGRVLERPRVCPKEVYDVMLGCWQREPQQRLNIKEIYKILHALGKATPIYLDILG
Sequence of TrkA (P04629 33-796, species assumed): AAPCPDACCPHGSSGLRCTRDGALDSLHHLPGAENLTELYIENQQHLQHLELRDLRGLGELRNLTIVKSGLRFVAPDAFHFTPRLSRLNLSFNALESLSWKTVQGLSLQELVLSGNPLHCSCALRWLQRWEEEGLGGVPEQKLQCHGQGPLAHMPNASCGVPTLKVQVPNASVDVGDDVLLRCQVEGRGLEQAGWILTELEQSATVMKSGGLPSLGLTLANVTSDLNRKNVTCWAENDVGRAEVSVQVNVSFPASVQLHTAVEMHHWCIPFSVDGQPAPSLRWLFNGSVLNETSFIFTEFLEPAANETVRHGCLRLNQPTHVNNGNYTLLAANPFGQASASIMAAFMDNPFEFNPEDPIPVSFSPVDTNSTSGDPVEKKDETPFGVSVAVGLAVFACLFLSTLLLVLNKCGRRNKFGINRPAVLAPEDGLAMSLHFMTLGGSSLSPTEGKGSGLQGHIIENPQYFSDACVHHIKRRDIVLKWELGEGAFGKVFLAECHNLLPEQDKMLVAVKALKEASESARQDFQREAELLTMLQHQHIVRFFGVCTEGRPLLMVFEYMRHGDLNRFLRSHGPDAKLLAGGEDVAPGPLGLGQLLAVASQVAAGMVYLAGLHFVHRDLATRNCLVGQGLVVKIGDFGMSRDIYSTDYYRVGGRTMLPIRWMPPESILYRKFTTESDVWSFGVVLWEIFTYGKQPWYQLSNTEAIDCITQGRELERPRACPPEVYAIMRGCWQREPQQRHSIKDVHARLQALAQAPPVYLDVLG

What is called IC50 is the point on the concentration scale where inhibition reaches its midpoint. With `CC1Cc2ncc(F)cc2[C@H]2CCCN2c2ccn3ncc(c3n2)C(=O)NN1C1CC1` (single isomer, unassigned) [Example 3a, (1^3E,1^4E,2^2R,5R or S)-6-cyclopropyl-3^3-fluoro-5-methyl-6,7-diazepine-1(5,3)-pyrazolo(1,5-a]pyrimidine-3(3,2)-pyridine-2(1,2)-pyrrolidine cyclooctane-8-one], the IC50 in data set [1] turned out to be 1.58 nM; in data set [2], 2.27 nM; in data set [3], 0.46 nM.
In the case of `CC1Cc2ncc(F)cc2[C@H]2CCCN2c2ccn3ncc(c3n2)C(=O)NN1C1CC1` (single isomer, unassigned) [Example 3b, (1^3E,1^4E,2^2R,5R or S)-6-cyclopropyl-3^5-fluoro-5-methyl-6,7-diazepine-1(5,3)-pyrazolo(1,5-a]pyrimidine-3(3,2)-pyridine-2(1,2)-pyrrolidine cyclooctane-8-one], the 50% inhibitory concentration (IC50) was 1.13 nM in data set [1], 2.16 nM in data set [2] and 0.38 nM in data set [3].
With `CC1Cc2ncc(F)cc2[C@H]2CCCN2c2ccn3ncc(c3n2)C(=O)NN1C` (single isomer, unassigned) [Example 7a, (1^3E,1^4E,2^2R,5R or S)-3^5-fluoro-5,6-dimethyl-6,7-diazepine-1(5,3)-pyrazolo[1,5-a]pyrimidine-3(3,2)-pyridine-2(1,2)-pyrrolidine cyclooctane-8-one], the values for the IC50 in data set [1], in data set [2] and in data set [3] were 4.04 nM, 3.2 nM and 0.58 nM, respectively.
For `CC1Cc2ncc(F)cc2[C@H]2CCCN2c2ccn3ncc(c3n2)C(=O)NN1C` (single isomer, unassigned) [Example 7b, (1^3E,1^4E,2^2R,5R or S)-3^5-fluoro-5,6-dimethyl-6,7-diazepine-1(5,3)-pyrazolo[1,5-a]pyrimidine-3(3,2)-pyridine-2(1,2)-pyrrolidine cyclooctane-8-one] the same measures were 0.71 nM, 2.62 nM and 0.19 nM.
Consider `CCN1NC(=O)c2cnn3ccc(nc23)N2CCC[C@@H]2c2cc(F)cnc2CC1C` (single isomer, unassigned) [Example 8a, (1^3E,1^4E,2^2R,5R or S)-3^5-fluoro-6-ethyl-5-methyl-6,7-diazepine-1(5,3)-pyrazolo[1,5-a]pyrimidine-3(3,2)-pyridine-2(1,2)-pyrrolidine cyclooctane-8-one], for which the IC50 worked out at 6.19 nM in data set [1], 4.01 nM in data set [2] and 0.76 nM in data set [3].
For the compound `CCN1NC(=O)c2cnn3ccc(nc23)N2CCC[C@@H]2c2cc(F)cnc2CC1C` (single isomer, unassigned) [Example 8b, (1^3E,1^4E,2^2R,5R or S)-3^5-fluoro-6-ethyl-5-methyl-6,7-diazepine-1(5,3)-pyrazolo[1,5-a]pyrimidine-3(3,2)-pyridine-2(1,2)-pyrrolidine cyclooctane-8-one], the IC50 in data set [1] turned out to be 1.35 nM; in data set [2], 1.85 nM; in data set [3], 0.34 nM.
What is called GI50 is the concentration at which growth is held to half of that of the control. Consider `CC1Cc2ncc(F)cc2[C@H]2CCCN2c2ccn3ncc(c3n2)C(=O)NN1C1CC1` (stereo partly drawn) [Example 2, (1^3E,1^4E,2^2R)-6-cyclopropylamino-3^5-fluoro-5-methyl-6,7-diazepine-1(5,3)-pyrazolo[1,5-a]pyrimidine-3(3,2)-azabenzene-2(1,2)-pyrrolidine cyclooctane-8-one], for which, in data set [2], the IC50 turned out to be 3.81 nM. Further, the GI50 in data set [4] came out at 18 nM.
As a reminder, the half-life is how long it takes for the measured level to halve. Low values mean fast loss, high ones slow loss. Consider `CN1CCc2ncc(F)cc2[C@H]2CCCN2c2ccn3ncc(c3n2)C(=O)N1` [Example 4, (R,1^3E,1^4E)-3^5-fluoro-6-methyl-6,7-diazepine-1(5,3)-pyrazolo[1,5-a]pyrimidine-3(3,2)-azabenzene-2(1,2)-pyrrolidine cyclooctane-8-one], for which, in data set [2], the IC50 was 12.6 nM. For the same compound, in data set [5], the “Remaining % (60 min)” value was 88.39%, the “Negative control Remaining % (60 min)” value turned out to be 108.0%, the half-life at 1 μmol/L was 3.62 h and the microsomal CLint at 1 μmol/L amounted to 6.4 µL/min/mg.
Regarding `CCN1CCc2ncc(F)cc2[C@H]2CCCN2c2ccn3ncc(c3n2)C(=O)N1` [Example 5, (R,1^3E,1^4E)-6-ethyl-3^3-fluoro-6,7-diazepine-1(5,3)-pyrazolo[1,5-a]pyrimidine-3(3,2)-azabenzene-2(1,2)-pyrrolidine cyclooctane-8-one], the IC50 in data set [2] is 7.92 nM.
Turning to `CC(C)N1CCc2ncc(F)cc2[C@H]2CCCN2c2ccn3ncc(c3n2)C(=O)N1` [Example 6, (R,1^3E,1^4E)-3^5-fluoro-6-isopropyl-6,7-diazepine-1(5,3)-pyrazolo[1,5-a]pyrimidine-3(3,2)-pyridine-2(1,2)-pyrrolidine cyclooctane-8-one], the half-maximal inhibitory concentration (IC50) in data set [1] came out at 0.83 nM; in data set [2], 2.09 nM; in data set [3], 0.29 nM.
Regarding `CC(C)CN1CCc2ncc(F)cc2[C@H]2CCCN2c2ccn3ncc(c3n2)C(=O)N1` [Example 9, (R,1^3E,1^4E)-3^5-fluoro-6-isobutyl-6,7-diazepine-1(5,3)-pyrazolo[1,5-a]pyrimidine-3(3,2)-pyridine-2(1,2)-pyrrolidine cyclooctane-8-one], the values for the IC50 in data set [1], in data set [2] and in data set [3] were 2.16 nM, 2.36 nM and 0.32 nM, respectively.
For the compound `C[C@@H]1CCc2ncc(F)cc2[C@H]2CCCN2c2ccn3ncc(c3n2)C(=O)N1` [LOXO-195, reference compound], in data set [5], the “Remaining % (60 min)” value was found to be 6.70%, the “Negative control Remaining % (60 min)” value was 102%, the half-life at 1 μmol/L worked out at 0.255 h and the microsomal CLint at 1 μmol/L was determined as 90.6 µL/min/mg.

Source of the values: US11597729B2, “Tropomyosin receptor kinase inhibitor, preparation method therefor and use thereof” (JIANGSU VCARE PHARMATECH CO., LTD., priority 2018, dated 2023).
